# Test results: patent US6376488B1, “Benzoxazine α-1 adrenergic compounds” (Abbott Laboratories, priority 2000, dated 2002)
# Biological target: T1, α1a (bovine) adrenoreceptor (Bos taurus, UniProt P18130)
# T1 sequence (P18130 1-466): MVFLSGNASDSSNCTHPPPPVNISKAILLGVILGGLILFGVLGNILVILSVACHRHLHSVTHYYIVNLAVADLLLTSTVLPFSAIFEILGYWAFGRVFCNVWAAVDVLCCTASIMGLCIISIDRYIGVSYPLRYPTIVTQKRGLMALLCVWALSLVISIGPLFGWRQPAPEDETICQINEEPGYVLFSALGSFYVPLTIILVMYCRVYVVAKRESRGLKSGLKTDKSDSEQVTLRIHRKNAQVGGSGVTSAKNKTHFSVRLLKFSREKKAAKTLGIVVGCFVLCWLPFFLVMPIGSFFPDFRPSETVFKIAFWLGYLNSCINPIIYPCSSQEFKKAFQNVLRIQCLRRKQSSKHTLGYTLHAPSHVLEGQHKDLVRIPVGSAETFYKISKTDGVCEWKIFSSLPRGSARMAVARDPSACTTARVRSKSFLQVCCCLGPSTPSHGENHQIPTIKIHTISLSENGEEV
# Test: [3H]-prazosin radioligand binding, cloned α1a (bovine) adrenoreceptor in LTK cells
# Settings: cloned receptor in LTK cell membranes, [3H]prazosin 0.2 nM
# Description: Representative compounds of the invention were evaluated for α adrenoreceptor binding affinity in vitro using [^3H]-prazosin as the radioligand and following four cloned α1, adrenoreceptors expressed in LTK cells: α1a (rat), α1a (bovine), α1b : (hampster), and α1d (rat).
# The cDNA clones encoding the α1, adrenoreceptors were obtained from TULCO (Triangle Universities Licensing Consortium, Research Triangle Park, N.C.) and inserted into the eukaryotic expression vector SnaB30. In this vector, expression of the adrenoreceptor gene is under the transcriptional control of an SV40 early promoter. Positive drug selection is provided by a neomycin-resistance gene. Mouse fibroblast cells (LTK) were transfected with the α1 expression plasmids and grown in Dulbecco's modified Eagle's medium (DMEM) containing 10% fetal calf serum and 30 μM G418. Stable G418-resistant parental lines were generated with successful expression of adrenoreceptor protein monitored using radioligand binding techniques. Stable single cell clones derived from the parental lines were screened in adrenoreceptor binding assays to identify clones having high adrenoreceptor density. Roller bottle cultures of the cloned lines were used to provide cell membranes for subsequent adrenoreceptor binding characterization studies. A cell line containing the SnaB30 vector expressing the human erythropoietin gene served as a negative control.
# For adrenoreceptor binding assays, large scale membrane preparations were utilized in which 6 million cells were seeded into small (450 cm^2) Coming tissue culture roller bottles. DMEM (200 mL) containing 10% fetal calf serum and 300 μM G418 were added to each roller bottle. A 95% air/5% CO2 gas mixture (sterile) was injected into each roller bottle prior to sealing, and the bottles were then incubated at 37° C. on a roller rack for 5 days. Cells were refed with fresh medium after 3 days in culture.
# On the fifth day of culture, growth medium was removed from cells grown in roller bottles, and the cells were washed twice with PBS (Sigma, 120 mM NaCl, 2.7 mM KCl, 10 mM Na2HPO4-NaH2PO4, pH=7.4). Cells were detached from the roller bottles by incubating for 15 minutes at 37° C. in a Tris-EDTA solution (10 mM Tris, 100 mM NaCl, 1 mM EDTA, pH=7.4). The cell suspension from each roller bottle was decanted into tared centrifuge tubes and kept on ice. An aliquot of each cell suspension was generally taken for cell counting. Cells were centrifuged at 3000×G for 5 minutes at 2-4° C., washed with PBS and recentrifuged. The supernatant was decanted, and the pellet was weighed to determine the wet weight of cells. Cells were washed a final time in 40 vol 5 mM Tris-HCl, 5 mM EDTA, pH=7.7 and centrifuged at 40,000×G for 10 minutes (“vol” indicates volume/weight, e.g., a “vol” of 40 would indicate that the one gram of cells were washed with 40 mls of buffer). Cells were homogenized in of 50 mM Tris-HCl, 5 mM EDTA (pH=7.4) (10 mL) and diluted to 40 mL/tube. Homogenates were centrifuged at 40,000×G for 10 minutes. The supernatant was decanted and the pellets rehomogenized in 50 mM Tris-HCl (pH=7.4) and centrifuged as before. The supernatant was decanted and the homogenate was resuspended in 6.25 volumes (per gram wet weight) of 50 mM Tris-HCl and aliquots of the pooled homogenates frozen in liquid N2 and,stored at −70° C. until the time of assay.
# Receptor binding assays for α1 adrenoreceptors were performed essentially as described by Greengrass and Bremner (Eur. J. Pharmacol. 55: 323-326 (1979)). […] Following equilibration, bound radioligand was separated from free on GF/B filters (presoaked in 0.5% polyethyleneimine) using ither a Brandel or Packard cell harvester. Radioactivity was determined by standard liquid scintillation techniques. Data were analyzed as previously described (Hancock, A. A., Kyncl, J. J., Martin, Y. C. and DeBemardis, J. F., J. Receptor Res. 8: 23-46 (1988)). The in Table 1.
smiles,measurement,value
"COc1cccc2c1N1CCN(CCCn3c(=O)[nH]c4c(sc5cccnc54)c3=O)CC1CO2.Cl.Cl.Cl (single isomer, unassigned; (+)) [Example 17, (+) 3-[3-(10-methoxy-1,2,4a,5-tetrahydropyrazino[2,1-c][1,4]benzoxazin-3(4H)-yl)propyl]pyrido[2′,3′:4,5]thieno[3,2-d]pyrimidine-2,4(1H,3H)-dione trihydrochloride]",Ki,2.5 nM
